pIC50: −log10 of the molar value.
Target: T1, CB1 receptor (Homo sapiens, UniProt P21554)
T1 construct: expressed in transfected cells
Assay: [35S]-GTPγS binding assay on membranes from cells stably transfected with the CB1 gene, inhibition of agonist CP55940 (EC80)
Type: biochemical
Conditions: half maximal inhibition of GTPγS binding in presence of EC80 concentration of CP55940; 30° C., 45 min

T1 sequence (P21554 whole entry): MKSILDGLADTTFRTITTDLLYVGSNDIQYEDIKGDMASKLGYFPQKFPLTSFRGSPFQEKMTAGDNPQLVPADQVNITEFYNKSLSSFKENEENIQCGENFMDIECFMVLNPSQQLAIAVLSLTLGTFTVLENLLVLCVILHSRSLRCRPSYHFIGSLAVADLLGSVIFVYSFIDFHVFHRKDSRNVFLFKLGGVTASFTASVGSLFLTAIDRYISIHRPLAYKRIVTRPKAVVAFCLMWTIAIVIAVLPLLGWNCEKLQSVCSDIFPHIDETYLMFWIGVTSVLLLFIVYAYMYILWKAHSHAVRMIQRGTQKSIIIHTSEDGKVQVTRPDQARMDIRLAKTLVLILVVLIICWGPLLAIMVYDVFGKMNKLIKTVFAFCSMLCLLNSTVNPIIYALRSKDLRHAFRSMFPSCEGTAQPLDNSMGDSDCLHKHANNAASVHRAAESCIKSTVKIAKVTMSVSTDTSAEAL

pIC50: 7.55
Compound: CCS(=O)(=O)Oc1ccc(-n2c(-c3ccc(Cl)cc3Cl)nc(C(=O)NN3CCCCC3)c2C)cc1 [Example 2, Ethanesulfonic acid 4-[2-(2,4-dichlorophenyl)-5-methyl-4-(piperidin-1-ylcarbamoyl)-imidazol-1-yl]-phenyl ester]
